Results published in patent US20200332251A1, “PERFUSION MEDIUM” (Boehringer Ingelheim International GmbH, priority 2017, published 2020).

Experiments:
Type in all cases: cell-based, Chinese Hamster
[1] = tested on: CHO perfusion cell culture; test: cells; details: for increase of the cell specific productivity: relative to cell culture without the additive; for cell growth (VCD) relative to normal perfusion media / specific productivity relative to normal perfusion media: each concentration (arachidonic acid 500 μM; PGE2 0.001, 10, 20, 60 μM), before day 6
Description: (§1) The below examples, unless specified otherwise, were carried out using the following generalized protocol and apparatus for perfusion cell culture. Two different formats of perfusion culture process were employed for the experiments described in the examples. One is executed in a bioreactor model and the other is in a deep-well plate model.
(§2) The deep-well plate model is carried out using 24 deep-well plates with an 8 day run duration. A starting cell density of 20e^6 cells/ml is targeted for deep well plate model work. The working volume per well is 3 ml and cells are grown at 33° C. with 5% CO2, 80% humidity, and 200 rpm in an incubator with a 5.0 cm orbit diameter. Medium exchanges are performed daily by centrifuging the plate at 1800 rpm for 5 mins, removing supernatant, and re-suspending the cells in fresh media at 70% volume per day (VVD) exchange rate. Further details of the setup is described by Lin et al. (Biotechnol. Prog., 2017, Vol. 33, No. 4).
In this example, the deep-well plate model is used.
Linoleic acid at various concentrations 500 μM, 900 μM, 1350 μM and 1800 μM was added to the cell culture media and the effects on (A) viable cell density (e^5 cells/nil), (B) percent (%) cell viability and (C) specific productivity (qp) were determined.
In this example, the deep-well plate model is used. This example analyzes the effect of arachidonic acid when added to perfusion medium.
The effect of arachidonic acid on (A) viable cell density (e^5 cells/nil), (B) percent (%) cell viability and (C) specific productivity (qp) of the cell culture was determined.
In this example, the deep-well plate model is used. This experiment analyzes the effect of prostaglandin E2 when added to perfusion medium.
At each concentration, the VCD and specific productivity (i.e., specific titer), the growth was suppressed cell growth and the specific productivity was increased before day 6 relative to the cell culture in normal perfusion media.

[2] = tested on: CHO perfusion cell culture; test: Deep-well plate perfusion cell culture model, acetylsalicylic acid (ASA) in perfusion media with 500 μM arachidonic acid
Description: as §1, §2
In this example, the deep-well plate model is used. ASA is an inhibitor of COX-1 and COX-2, which are the metabolic enzymes which convert arachidonic acid to synthesize prostaglandin E2 (See FIG. 2). This experiment therefore analyses the effect of acetylsalicylic acid (ASA) when added to perfusion medium.
The data provide evidence that prostaglandin E2 is effective in triggering cell growth suppression and in increasing cell specific productivity.

[3] = tested on: CHO perfusion cell culture; test: Deep-well plate perfusion cell culture model, arachidonic acid added to k-pop (high potassium) perfusion medium; details: 150 μM to 500 μM in medium with about 34 mM sodium and 94 mM potassium; beyond the effect of high potassium alone
Description: as §1
as §2, with “4). […]” for “4).”
The effect of concentrations of arachidonic acid added at 150 μM, 300 μM and 500 μM to a cell culture media having a sodium concentration of approximately 34 mM and a preexisting high potassium concentration of approximately 94 mM, i.e., a low sodium-to-potassium ratio of about 0.4, was determined with respect to (A) viable cell density (e^5 cells/nil), (B) percent (%) cell viability and (C) specific productivity (qp) was determined.

[4] = Cricetulus griseus, read-out: decrease of the VCD (viable cell density)
[5] = added to perfusion medium, 500-1800 μM (Example 2, FIG. 3)
[6] = 500 μM added in the normal perfusion media (Example 3, FIG. 4)
[7] = ASA in perfusion media with 500 μM arachidonic acid

## CCCCC/C=C\C/C=C\CCCCCCCC(=O)O [linoleic acid]
[1]; 500 μM in growth medium
  increase of the cell specific productivity: up to 10%
[1]; 900 μM in growth medium
  increase of the cell specific productivity: up to 14%
[1]; 1350 μM in growth medium
  increase of the cell specific productivity: up to 14%
[1]; 1800 μM in growth medium
  increase of the cell specific productivity: up to 30%
[1]; 1800 μM, similar to arachidonic acid at 500 μM
  viable cell density, viability and specific productivity relative to the normal perfusion media: most significant difference
[1]; 500, 900 and 1350 μM, day 7, about the same at the three concentrations
  cell specific productivity relative to normal perfusion media: significantly increased
[1]; [4]
  cytotoxicity at 500 µM: 6 to 10%
  cytotoxicity at 900 µM: 11 to 14%
  cytotoxicity at 1350 µM: 11 to 25%
  cytotoxicity at 1800 µM: 23 to 39.8%
[1]; [5]
  cell growth: suppresses cell growth
  cell specific productivity (qp): increases cell specific productivity

## CCCCC/C=C\C/C=C\C/C=C\C/C=C\CCCC(=O)O [arachidonic acid]
[1]; [6]
  increase of cell specific productivity (qp): ≥ 46%
  suppression of cell growth: up to 31%
[1]; 500 μM in growth medium
  increase of the cell specific productivity: up to 52%
[1]; [4]
  cytotoxicity at 500 µM: 15 to 36%
[1]
  cell growth (VCD) relative to normal perfusion media: suppressed
  specific productivity relative to normal perfusion media: increased
[2]; 500 μM arachidonic acid when COX-1 and COX-2 are inhibited by ASA
  suppressing cell growth and increasing productivity: no effect
[3]
  cell growth: decreases cell growth
  cell specific productivity: improves cell specific productivity

## CCCCC[C@H](O)/C=C/[C@H]1[C@H](O)CC(=O)[C@@H]1C/C=C\CCCC(=O)O [prostaglandin E2]
[1]; 0.001 μM in growth medium
  increase of the cell specific productivity: up to 13.5%
[1]; 10 μM in growth medium
  increase of the cell specific productivity: up to 34.4%
[1]; 20 μM in growth medium
  increase of the cell specific productivity: up to 31%
[1]; 60 μM in growth medium
  increase of the cell specific productivity: up to 31%
[1]
  cell growth (VCD) relative to normal perfusion media: suppressed
  specific productivity relative to normal perfusion media: increased

## CC(=O)Oc1ccccc1C(=O)O [ASA, acetylsalicylic acid]
[2]; [7]
  specific productivity compared with normal perfusion medium: same effect
  viable cell density compared with normal perfusion medium: higher
